Results reported in patent US8927570B2, “1-naphthyl-or 1-dihydroacenaphthenyl-pyrido[B]indoles and uses thereof in treating cancers” (priority 2009, dated 2015).

What was measured:
[1] = tested on: HCT116, MCF-7, A549, LNCaP, DU145 and PC-3 cancer cells; assay: Flow cytometry, cell cycle kinetics of cancer cells; type: cell-based, human; conditions: 15 mM in 0.1% DMSO
Protocol: (§1) Flow cytometry experiments were performed to show the effects of Compound 19, and anticancer drugs Adriamycin or Camptothecin treatment on the cell cycle kinetics of various human cells (FIGS. 8A-8I and 9A-9I), MCF-7 breast cancer cells (FIGS. 5A-5F), A549 lung cancer cells (FIGS. 7A-7I), LNCaP (FIGS. 10A-10I), DU145 (FIGS. 11A-11I) and PC-3 (FIGS. 12A-12I) prostate cancer cells, as well as cultured normal human fibroblasts (FIGS. 6A-6F). The compound or drugs were applied at a concentration of 15 mM in 0.1% DMSO as the vehicle, and cells incubated for the time point indicated in hours (hr). The control samples were treated with vehicle without compound or drug. Red histograms represent cells in the G1/G0 phase (histogram to the left) and cells in the G2/M phases (histogram to the right). The interval between the G1/G) and G2/M histograms is the S-phase of the cell cycle. The subG1/GO histograms (cyan colored) represent cells undergoing apoptosis (programmed cell death).

[2] = tested on: cultured normal human fibroblasts; assay: Flow cytometry, cell cycle kinetics of cultured normal human fibroblasts; type: cell-based; conditions: 15 mM in 0.1% DMSO; for selectivity between cancer cells and normal (fibroblast) cells: flow cytometry cell cycle kinetics
Protocol: as §1

HCT116 P53 −/− = assay: In vitro antiproliferative activity, HCT116 P53 −/− cells; type: cell-based; conditions: Homo sapiens, HCT-116, Table 1
Protocol: (§2) Substituted β-carboline compounds 4 to 38 were tested for antiproliferative activity against HCT116 colon cancer cells and HPAC, Mia-PaCa2 and Panc-1 pancreatic cancer cell lines. Table 1 lists the IC50 values for the substituted β-carbolines.

[3] = tested on: HPAC pancreatic cancer cell line; assay: In vitro antiproliferative activity, HPAC pancreatic cancer cell line; type: cell-based; conditions: Homo sapiens, Table 1
Protocol: as §2
(§3) Substituted β-carbolines and analog compounds 39 to 57 were tested for antiproliferative activity against HPAC, Mia-PaCa2 and Panc-1 pancreatic cancer cell lines and MCF-7 and MDA-MB-468 breast cancer cell lines. Table 2 lists the IC50 values for the substituted β-carbolines and analogs thereof.

[4] = tested on: HCT116 colon cancer cells; assay: In vitro antiproliferative activity, HCT116 colon cancer cells; type: cell-based; conditions: Homo sapiens, HCT-116, Table 1
Protocol: as §2

[5] = tested on: Panc-1 pancreatic cancer cell line; assay: In vitro antiproliferative activity, Panc-1 pancreatic cancer cell line; type: cell-based, human; conditions: Homo sapiens, Table 1
Protocol: as §3

[6] = tested on: Mia-PaCa2 pancreatic cancer cell line; assay: In vitro antiproliferative activity, Mia-PaCa2 pancreatic cancer cell line; type: cell-based; conditions: Homo sapiens, MIA PaCa-2, Table 1
Protocol: as §2, §3

[7] = tested on: DU145 prostate cancer xenografts; assay: Antitumor activity in nude mice bearing DU145 prostate cancer xenografts; type: in vivo
Protocol: FIGS. 4A-4B illustrate antitumor activity on tumor growth (FIG. 4A) and on body weight (FIG. 4B) of compound 19 treatment in nude mice bearing human DUI145 prostate cancer xenografts.
Nude mice bearing DU145 prostate cancer xenografts were administered i.p. 10 mg/kg, 20 mg/kg or control of compound 19 and tumor growth (FIG. 4A) and body weight (FIG. 4B) was monitored over 25 days. […]

[8] = tested on: MDA-MB-468 breast cancer xenografts; assay: Antitumor activity in nude mice bearing MDA-MB-468 breast cancer xenografts; type: in vivo; conditions: 40 mg/kg i.p., after 18 days
Protocol: FIGS. 2A-2B illustrate antitumor activity on tumor mass (FIG. 2A) and on body weight (FIG. 2B) of compound 19 treatment in nude mice bearing human MDA-MB-468 breast cancer xenografts.
(§4) Nude mice bearing MDA-MB-468 breast cancer (FIGS. 2A-2B) and Panc-1 pancreatic cancer (FIGS. 3A-3B) xenografts were administered 40 mg/kg i.p. of compound 19 and tumor mass and body weights were measured daily for 18 days compared to a PEG-ethanol-saline control.

[9] = tested on: Panc-1 pancreatic cancer xenografts; assay: Antitumor activity in nude mice bearing Panc-1 pancreatic cancer xenografts; type: in vivo; conditions: 40 mg/kg i.p., after 18 days
Protocol: FIGS. 3A-3B illustrate antitumor activity on tumor mass (FIG. 3A) and on body weight (FIG. 3B) of compound 19 treatment in nude mice bearing Panc-1 human pancreatic cancer xenografts.
as §4

Compound	IC50 (HCT116 P53 −/−) [nM]	IC50 [3] [nM]	IC50 [4] [nM]	cell cycle arrest mechanism in cancer cells [1]	selectivity between cancer cells and normal (fibroblast) cells [2]	IC50 [5] [nM]	IC50 [6] [nM]	other results
COc1cccc2c1C(=O)c1c(O)c3c(c(O)c1C2=O)C[C@@](O)(C(=O)CO)C[C@@H]3O[C@H]1C[C@H](N)[C@H](O)[C@H](C)O1 [Adriamycin]				primarily G1 phase arrest	did not show selectivity			
CC[C@@]1(O)C(=O)OCc2c1cc1n(c2=O)Cc2cc3ccccc3nc2-1 [Camptothecin]				primarily G1 phase arrest	did not show selectivity			
COc1ccc2[nH]c3c(-c4cccc5ccccc45)nccc3c2c1 [Compound 19, 6-Methoxy-1-naphthalen-1-yl-9H-β-carboline]		290	130	G2/M arrest mechanism(s)		290	200	perturbation of the cell cycle of normal human cells ([2]; normal human fibroblasts): no significant perturbation; body weight ([7]; 10 mg/kg and 20 mg/kg i.p., over 25 days): remained fairly constant; percent of tumor growth ([7]; 10 mg/kg i.p., at about day 7): less than control; rate of tumor growth ([7]; 10 mg/kg i.p., over the 25 days): about equivalent to that of control; tumor growth ([7]; 20 mg/kg i.p., over 25 days): significant decrease in tumor growth compared to 10 mg/kg and control; body weight [8]: nor had body weight decreased; tumor mass ([8]; vs PEG-ethanol-saline control): had not increased; body weight [9]: nor had body weight decreased; tumor mass ([9]; vs PEG-ethanol-saline control): had not increased

The next lines start with results.

IC50 (HCT116 P53 −/−) [nM]	IC50 [3] [nM]	IC50 [4] [nM]	Compound	cell cycle arrest mechanism in cancer cells [1]	selectivity between cancer cells and normal (fibroblast) cells [2]	IC50 [5] [nM]	IC50 [6] [nM]	other results
53700	45100	60900	COc1ccc2[nH]c3c(-c4ccoc4)nccc3c2c1 [Compound 9, 1-Furan-3-yl-6-methoxy-9H-β-carboline]					
18700		7000	COc1ccc2c(c1)[nH]c1c(-c3ccnc4ccccc34)nccc12 [Compound 10, 7-Methoxy-1-quinolin-4-yl-9H-β-carboline]					
460	560	510	COc1ccc2[nH]c3c(-c4ccnc5ccccc45)nccc3c2c1 [Compound 11, 6-Methoxy-1-quinolin-4-yl-9H-β-carboline]			580	490	
